# Reference: patent publication US20160052936A1, “SPIROINDOLINE DERIVATIVES FOR USE AS GONADOTROPIN-RELEASING HORMONE RECEPTOR ANTAGONISTS” (BAYER PHARMA AKTIENGESELLSCHAFT, priority 2013, published 2016)
# Tests used:
# [1] = In vivo pharmacokinetics in rats; details: Wistar, rat, plasma, po, male rats, 2 mg/kg p.o.; for bioavailability: AUCnorm intragastral / AUCnorm i.v. (0.5 mg/kg), read-out: F (oral bioavailability)
# Method: 2.4 In Vivo Pharmacokinetics in Rats
# For in vivo pharmacokinetic experiments test compounds were administered to male Wistar rats intravenously at a dose of 0.5 mg/kg and intragastral at a dose of 2 mg/kg formulated as solutions using solubilizers such as PEG400 or Solutol in well-tolerated amounts.
# For pharmacokinetics after intravenous administration test compounds were given as i.v. bolus and blood samples were taken at 2 min, 8 min, 15 min, 30 min, 45 min, 1 h, 2 h, 4 h, 7 h and 24 h after dosing. […] For pharmacokinetics after intragastral administration test compounds were given intragastral to fasted rats and blood samples were taken at 8 min, 15 min, 30 min, 45 min, 1 h, 2 h, 4 h, 7 h and 24 h after dosing. […] Blood was collected into Lithium-Heparintubes (Monovetten®, Sarstedt) and centrifuged for 15 min at 3000 rpm. An aliquot of 100 μL from the supernatant (plasma) was taken and precipitated by addition of 400 μL cold acetonitril and frozen at −20° C. over night. Samples were subsequently thawed and centrifuged at 3000 rpm, 4° C. for 20 minutes. Aliquots of the supernatants were taken for analytical testing using an Agilent 1200 HPLC-system with LCMS/MS detection. PK parameters were calculated by non-compartmental analysis using a PK calculation software.
# PK parameters derived from concentration-time profiles after i.v.: CLplasma: Total plasma clearance of test compound (in L/kg/h); CLblood: Total blood clearance of test compound: CLplasma*Cp/Cb (in L/kg/h) with Cp/Cb being the ratio of concentrations in plasma and blood. PK parameters calculated from concentration time profiles after i.g.: Cmax: Maximal plasma concentration (in mg/L); Cmaxnorm: Cmax divided by the administered dose (in kg/L); Tmax: Time point at which Cmax was observed (in h). Parameters calculated from both, i.v. and i.g. concentration-time profiles: AUCnorm: Area under the concentration-time curve from t=0 h to infinity (extrapolated) divided by the administered dose (in kg*h/L); AUC(0−tlast)norm: Area under the concentration-time curve from t=0 h to the last time point for which plasma concentrations could be measured divided by the administered dose (in kg*h/L); t½: terminal half-life (in h); F: oral bioavailability: AUCnorm after intragastral administration divided by AUCnorm after intravenous administration (in %).
# human GnRHR = biological target: T1, human GnRHR (Homo sapiens, UniProt P30968); experiment: Tag-Lite receptor binding assay; details: Hek293 cells transiently transfected with human GnRHR; displacement of green-labelled GnRHR binding peptide; read-out: Potency in receptor binding assay using TAG-LITE technology, given as IC50
# T1 construct: own knowledge: Tag-lite cells usually carry an N-terminal SNAP-tag fusion; host or cells: Hek293 cells, transiently transfected, supplied frozen
# T1 sequence (P30968 1-328): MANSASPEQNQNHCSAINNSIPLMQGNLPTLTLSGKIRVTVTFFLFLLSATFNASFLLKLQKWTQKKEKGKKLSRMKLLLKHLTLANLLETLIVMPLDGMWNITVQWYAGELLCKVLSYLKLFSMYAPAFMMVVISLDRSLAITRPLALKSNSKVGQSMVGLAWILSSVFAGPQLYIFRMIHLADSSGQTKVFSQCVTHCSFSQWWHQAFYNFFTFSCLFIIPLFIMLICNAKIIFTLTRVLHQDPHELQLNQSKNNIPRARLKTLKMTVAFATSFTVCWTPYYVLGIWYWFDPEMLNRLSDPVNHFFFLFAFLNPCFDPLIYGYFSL
# From the text: 2.2. Tag-Lite® Receptor Binding Assay
# This binding assay is based on the fluorescence resonance energy transfer between fluorescence donor labelled human GnRHR and a green-labelled GnRHR binding peptide. Compounds interfering with the ligand binding side of the human GnRHR will replace the labelled peptide resulting in a signal decrease. The assay principle was established by Cisbio Bioassays (Bagnols-sur-Cèze Cedex, France) and further details are available on their homepage.
# The assay procedure was further optimized for use in-house with reduced assay volumes. Frozen Hek293 cells, transiently transfected with human GnRHR and Terbium-labelling of the receptor, were supplied by Cisbio Bioassays as well as Tag-Lite buffer and green-labelled GnRHR binding peptide. Cells were thawed and transferred to cold Tag-Lite buffer. A volume of 8 μl of this cell suspension were added to 100 nl of a 160-fold concentrated solution of the test compound in DMSO pre-dispensed in a well of a white low-volume 384-well microtiter plate (Greiner Bio-One, Frickenhausen, Germany). The mixture was incubated for 5 min at room temperature. In the next step either 4 μl Tag-Lite buffer or as control 4 μl of an exceeding amount unlabelled binding peptide in Tag-Lite buffer were transferred to the mixture. The green-labelled GnRHR binding peptide was added in a final step at EC50 in a volume of 4 μl Tag-Lite buffer. After an incubation of 1 h at room temperature plates were measured in a microplate reader, e.g. a PHERAstar (BMG Labtechnologies, Offenburg, Germany) by using a specific optic module.
# A ratio from the fluorescence emissions at 520 nm (green fluorescence) and at 490 nm (background signal of Terbium-labelled GnRHR) was calculated and the data were normalized (reaction without test compound=0% inhibition of binding of green-labelled peptide; reaction without test compound with exceeding amount unlabelled binding peptide=100% inhibition of binding of green-labelled peptide). On the same microtiter plate, compounds were tested at 10 different concentrations in the range of 12.5 μM to 0.64 nM (12.5 μM, 4.2 μM, 1.4 μM, 0.46 μM, 0.15 μM, 51 nM, 17 nM, 5.7 nM, 1.9 nM and 0.64 nM; dilution series prepared before the assay at the level of the 160-fold conc. stock solutions by serial 1:3 dilutions in 100% DMSO) in duplicate values for each concentration. By using an in-house software, the IC50 values were calculated by a 4 parameter fit.
SMILES,half-life [1] [h],bioavailability [1] [%],IC50 (human GnRHR) [nM]
"O=C(NCc1ncc(C(F)(F)F)cc1F)c1ccc2c(c1)C1(CCS(=O)(=O)CC1)[C@H](C1CC1)N2S(=O)(=O)c1ccc(F)cc1 (single isomer, unassigned) [Example 1.1]",5.2,32,230
"N#Cc1cccc(S(=O)(=O)N2c3ccc(C(=O)NCc4ncc(C(F)(F)F)cc4Cl)cc3C3(CCS(=O)(=O)CC3)[C@@H]2C2CC2)c1 (single isomer, unassigned) [Example 10.1]",3.3,23,10.3
"O=C(NCc1ncc(C(F)(F)F)cc1Cl)c1ccc2c(c1)C1(CCS(=O)(=O)CC1)[C@H](C1CC1)N2S(=O)(=O)c1ccc(F)cc1 [Example 3.1, (2S)—N-{[3-chloro-5-(trifluoromethyl)pyridin-2-yl]methyl}-2-cyclopropyl-1-[(4-fluorophenyl)sulfonyl]-1,2,2′,3′,5′,6′-hexahydrospiro[indole-3,4′-thiopyran]-5-carboxamide 1′,1′-dioxide]",17,87,16.7
